Test results published in PubChem BioAssay (NCI).
Several values for one entry are separate records, joined by “and”; a condition that tells them apart may be missing. Equal entries are not always repeated.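 Each compound was tested at five concentrations against cells in 96-well plates for 48 hours. Here, GI50 denotes the concentration required for 50% inhibition of growth. At the TGI there is no net growth.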

Key:
Test in all cases: NCI tumour cell line growth inhibition, 48 h
KM20L2 colon = tested on: KM20L2 colon
XF 498 CNS = tested on: XF 498 CNS
SNB-78 CNS = tested on: SNB-78 CNS
DMS 273 small cell lung = tested on: DMS 273 small cell lung
M19-MEL melanoma = tested on: M19-MEL melanoma
P388 leukemia = tested on: P388 leukemia
SN12K1 renal = tested on: SN12K1 renal
HOP-18 NSCLC = tested on: HOP-18 NSCLC
DMS 114 small cell lung = tested on: DMS 114 small cell lung
MDA-N = tested on: MDA-N
RXF-631 renal = tested on: RXF-631 renal

Row | SMILES | TGI (KM20L2 colon) | TGI (XF 498 CNS) | TGI (SNB-78 CNS) | TGI (DMS 273 small cell lung) | TGI (M19-MEL melanoma) | TGI (HOP-18 NSCLC) | TGI (DMS 114 small cell lung) | TGI (MDA-N) | further results
1 | CC[C@@]1(O)C(=O)OCc2c1cc1n(c2=O)Cc2cc3cc(O)ccc3nc2-1 | 8.14 µM and 4.97 µM | 0.183 µM and 0.472 µM | 18.1 µM and > 100 µM | 0.47 µM and 1.74 µM | 0.589 µM and 1.01 µM | 5.2 µM |  |  | GI50 (KM20L2 colon): 0.186 µM; GI50 (XF 498 CNS): 0.0518 µM; GI50 (SNB-78 CNS): 0.213 µM; GI50 (DMS 273 small cell lung): 0.0272 µM and 0.0217 µM; GI50 (M19-MEL melanoma): 0.0634 µM; TGI (P388 leukemia): 1.43 µM; TGI (SN12K1 renal): 0.937 µM
2 | CC(C)(C)c1cc(Cc2ccc(S(C)(=O)=O)cc2)c(O)c(C(C)(C)C)c1 | 29.1 µM | 28.7 µM | 31.4 µM | 27.3 µM | 32.7 µM | 37.2 µM | 26.3 µM |  | 
3 | COC(=O)NC1=Nc2ccccc2C(=O)NN1 |  |  |  |  |  |  |  | > 100 µM | 
4 | O=C(Nc1ccc(Nc2ccc(NC(=O)c3ccccc3)c3c2C(=O)c2ccccc2C3=O)c2c1C(=O)c1ccccc1C2=O)c1ccccc1 | > 100 µM |  | > 100 µM | > 100 µM | > 100 µM | > 100 µM | > 100 µM |  | TGI (RXF-631 renal): > 100 µM
5 | Cc1cc(NS(=O)(=O)c2ccc(NC(=O)c3cccc4c(Nc5ccc(S(=O)(=O)Nc6cc(C)on6)cc5)c5ccc(Cl)cc5nc34)cc2)no1 | > 100 µM | > 100 µM | > 100 µM | > 100 µM | > 100 µM | > 100 µM | > 100 µM |  | 
6 | O=C1CCC2(c3ccccc3)OCC([C@@H](O)c3ccccc3)N12 (stereo not given in full) | > 100 µM | > 100 µM | > 100 µM | > 100 µM | > 100 µM | > 100 µM | > 100 µM |  | 
7 | C=C(CC)C(=O)c1ccc(OCC(=O)O)c(Cl)c1Cl |  |  |  |  |  |  |  | > 55.2 µM | 
8 | COc1ccc(C(=O)C(c2ccc(OC)cc2)C2(O)C(=O)Nc3c(Cl)cc(Cl)cc32)cc1 (stereo not given) | 68 µM | 47.2 µM | 57.7 µM | 46.8 µM |  | 44.8 µM | 42 µM |  | 
9 | Nc1nc(N)c2c(Cl)c(CNc3ccc(Cl)c(Cl)c3)ccc2n1 | 18.6 µM | 7.71 µM | 25.4 µM | 3.87 µM | 12.5 µM | 17.1 µM | 4.85 µM | 17 µM | 
10 | CCc1nc(N)nc(N)c1-c1ccc(N2CCNCC2)c([N+](=O)[O-])c1 |  |  |  |  |  |  |  | > 100 µM | 
11 | c1ccc(-c2sc(-c3ccccc3)c3c2C(c2ccccc2)c2c(-c4ccccc4)sc(-c4ccccc4)c2C3c2ccccc2)cc1 (stereo not given) | > 100 µM |  | > 100 µM | > 100 µM | > 100 µM |  | > 100 µM |  | 
12 | O=C1CC[C@@H](S(=O)(=O)c2ccccc2)[C@H](/C=C/c2ccccc2)O1 |  |  |  |  | > 100 µM | > 100 µM | > 100 µM |  | 
13 | Nc1nc2c(ncn2C2OC(CO)C(O)C2O)c(=O)o1 (stereo not given) | > 100 µM | > 100 µM | > 100 µM | > 100 µM | > 100 µM | > 100 µM | > 100 µM |  | TGI (RXF-631 renal): > 100 µM
14 | C=C1C2CCCC1C1(S(C)(=O)=O)CCCCC21O (stereo not given) | > 100 µM |  | > 100 µM | > 100 µM | > 100 µM | > 100 µM | > 100 µM |  | 
15 | CCN(CC)CCN1C(=O)c2c(c3c4cccc(Cl)c4n(C4OC(CO)C(OC)C(O)C4O)c3c3[nH]c4c(Cl)cccc4c23)C1=O (stereo not given) | 0.0103 µM | 0.284 µM |  |  |  |  |  | 0.21 µM | GI50 (KM20L2 colon): 0.000446 µM; GI50 (SNB-78 CNS): 0.0475 µM; GI50 (DMS 273 small cell lung): < 0.0001 µM; GI50 (DMS 114 small cell lung): < 0.0001 µM; GI50 (M19-MEL melanoma): 0.000144 µM; GI50 (HOP-18 NSCLC): 0.102 µM
16 | Cc1cc(C)c([O-])c(-[n+]2c(-c3ccccc3)cc(-c3ccccc3)cc2-c2ccccc2)c1 | 12.9 µM | 6.21 µM | 27.7 µM | 12.1 µM | 13.2 µM | 16.2 µM | 12.3 µM |  | TGI (RXF-631 renal): 26.4 µM
17 | CCP(C)(=O)CC | > 100 µM | > 100 µM | > 100 µM | > 100 µM | > 100 µM | > 100 µM | > 100 µM |  | TGI (RXF-631 renal): > 100 µM
18 | CC1CN1c1c(C(=O)/C=C/c2ccc(F)cc2)c(-c2ccccc2)nn(C)c1=O (stereo not given) | 31.6 µM | 28.8 µM | 67.3 µM |  | 27.7 µM | 33.2 µM | 31.1 µM |  | 
19 | [CH3][Ge]([CH3])([CH2]CC#N)[S]c1ccccc1 | 47.9 µM |  | 61.8 µM | 29.5 µM | 48 µM | > 100 µM |  |  | GI50 (KM20L2 colon): 21.6 µM; GI50 (SNB-78 CNS): 13.5 µM; GI50 (DMS 273 small cell lung): 6.1 µM; GI50 (M19-MEL melanoma): 16 µM; GI50 (HOP-18 NSCLC): > 100 µM
20 | COC(=O)C1C(=O)C(C(=O)OC)C2CCC1N2C (stereo not given) |  |  |  |  |  |  |  | 73.8 µM | 
21 | CN(C)Cc1ccc(O)c(CN(C)C)n1 |  |  |  |  |  |  |  | > 100 µM | 
22 | CCCCN(CCCC)CC(C(=O)Nc1ccc([N+](=O)[O-])cc1[N+](=O)[O-])/C(C)=N\NC(=O)c1ccncc1 (stereo not given) | > 100 µM | > 100 µM | > 100 µM | > 100 µM | > 100 µM |  | > 100 µM |  | TGI (RXF-631 renal): > 100 µM
